Experimental data reported in patent publication US20150126464A1, “THERAPEUTIC DRUG AND THERAPEUTIC METHOD FOR NEUROLOGICAL DISEASES INCLUDING ALZHEIMER'S DISEASE ASSOCIATED WITH 1,25D3-MARRS” (priority 2013, published 2015).

What was measured:
[1] = system: normal mice; experiment: Object recognition memory under continuous administration of 1,25D3-MARRS neutralizing antibody; assay type: in vivo, mouse; conditions: normal ddY mice, diosgenin i.p.
Method: To neutralize the 1,25D3-MARRS function of normal mice (ddY mice, male, 6 weeks old), a polyclonal antibody specific to 1,25D3-MARRS, i.e., Ab099 clone, was intraventricularly administered in a continuous manner. Ab099 diluted in ACSF (artificial cerebrospinal fluid) was charged into a micro osmotic pump (model: 1007D, Alzet, Cupertino, Calif., USA) and a brain infusion kit 3 (Alzet). The dilution rate of Ab099 was determined depending on the cerebrospinal fluid (CSF) volume and the inflow velocity so that the concentration would be sufficient for Ab099 to act as a neutralizing antibody in CSF. Using stereotaxic apparatus, a brain infusion cannula (brain infusion kit) was inserted into the right ventricle of each mouse anesthetized beforehand (anterior/posterior: −0.22 mm posterior from bregma, medial/lateral: +1.0 mm, dorsal/ventral: −2.5 mm below surface). The entire cannula insertion site was covered with Loctite 454 (Alzet). The pump was subcutaneously implanted in the back of the mouse. The incision in the skin was sutured.
After the start of continuous antibody administration, the intraperitoneal administration of diosgenin was initiated. After 5-day administration of diosgenin, the object recognition memory training was initiated. The next day, the last administration of diosgenin was performed. The test session was initiated 48 hours after the start of the training session. […]

[2] = system: normal mice; experiment: Novel object recognition test in normal mice; assay type: in vivo, mouse
Method: (§1) Diosgenin (Wako Pure Chemical Industries, Ltd., Osaka, Japan) was dissolved in ethanol at 10 times the final concentration to give a stock solution, and the stock solution was diluted in a 5% aqueous solution of glucose to the final concentration. The diosgenin solution was intraperitoneally administered to normal mice (ddY mice, male, 6 weeks old) once a day (10 μmol/kg/day) for 5 or 6 days. One hour after the last administration, each mouse was housed in a separate open-field box made of polyvinyl chloride (33 cm×28 cm; height: 26.5 cm), habituated to the environment for 10 minutes, and used in the test.
Using the mice of Example 8 and Comparative Example 11, a novel object recognition test was performed to evaluate the object recognition memory. Testing was carried out in a dimly illuminated room (100 lux). The test was performed as described in Joyashiki, E. et sl., Int J Neurosci, 121, 181-190, 2011 and Tohda, C. et al., Int J Neurosci, 121, 641-648, 2011, written by the inventors and others, except that the time interval between a training session and a test session was 48 hours. As a locomotion index, the path of each mouse was tracked using a digital camera system. The distance each mouse traveled during the 10 minutes was analyzed as locomotion activity with EthoVision 3.0 (Noldus, Wageningen, The Netherlands).
The diosgenin solution was intraperitoneally administered to normal mice (C57BL/6, male, 8 weeks old) (100 μmol/kg/day) for 14 days. On the day after the 14th administration, the mice were used in the test.
Using the mice of Example 9 and Comparative Example 12, the novel object recognition test was performed. The test was performed under the conditions as described above.
Dioscin in an amount of 30 μmol/kg/day was orally administered to normal mice (ddY mice, male, 6 weeks old) for 4 days. Dioscin (Chromadex, Irvine, Calif., USA) was dissolved in ethanol at 10 times the final concentration to give a stock solution, and the stock solution was diluted in a 5% aqueous solution of glucose to the final concentration. […]

[3] = system: normal mice; experiment: Measurement of spontaneous motor activity; assay type: in vivo, mouse; conditions: normal ddY mice, diosgenin 10 μmol/kg/day i.p., vs vehicle
Method: as §1
The spontaneous motor activity was evaluated based on the distance each mouse traveled in an open field during 10 minutes.

[4] = system: spinal cord injury (SCI) mice; experiment: Hindlimb motor function of spinal cord injury (SCI) mice (BMS, TMS); assay type: in vivo, mouse; conditions: diosgenin 10 μmol/kg i.p. once a day for 7 days, vs vehicle
Method: In the spinal cord injury model test, 7-week-old female ddY mice (SLC) were used. The mice were maintained with free access to food and water in a controlled environment (22±2° C., 50±5% humidity, 12-h light/dark cycle starting at 7:00 am). A contusion was created by dropping a 3.0 g weight once onto an exposed first lumbar vertebrae (L1) of each mouse from a height of 3 cm using stereotaxic apparatus (made by Narishige). One hour after surgery, the mice were randomly divided into a vehicle solution-treated group and a diosgenin-treated group, and then drug administration was initiated.
Diosgenin (10 μmol/kg) was intraperitoneally administered to SCI mice once a day for 7 days.
One hour after the last administration in Example 13 and Comparative Example 17, each mouse was moved to an open field (23.5 cm×16.5 cm×12.5 cm) and observed for behavior evaluation for 5 minutes. The locomotion behavior in the open field was evaluated using the Basso Mouse Scale (BMS), which is a general standard for evaluation of the hindlimb function of SCI model mice (FIG. 14A), and a 0-18-point Toyama Mouse Scale (TMS), which is a modified BMS devised by the inventors for better test accuracy, (FIG. 14B).
The new Toyama Mouse Scale (TMS), which is a modified BMS devised by the inventors for better test accuracy, was used in the hindlimb function of SCI mice.

[5] = system: normal mice; experiment: Location recognition test in normal mice; assay type: in vivo, mouse; conditions: diosgenin i.p. 7 days, 48 hours training-test interval
Method: as §1
Intraperitoneal administration to the mice of Example 2 and Comparative Example 3 was performed for 7 days. One hour after the last administration, a location recognition test was performed to evaluate the spatial recognition memory. Testing was carried out in a dimly illuminated room (100 lux). The test was performed as described in Tohda, C. et al., Br J Pharmacol. 157, 1427-1440, 2009, written by the inventor and others, except that the time interval between a training session and a test session was 48 hours. As a locomotion index, the path of each mouse was tracked using a digital camera system. The distance each mouse traveled during the 10 minutes was analyzed as locomotion activity with EthoVision 3.0 (Noldus, Wageningen, The Netherlands).

[6] = system: rat cortical neurons (SD E18); experiment: Axon density after Aβ (1-42)-induced axonal atrophy with 1,25D3-MARRS neutralizing antibody; assay type: cell-based; conditions: after Aβ (1-42) for 3 days; Ab099 clone 1:500; diosgenin 0.1 μM or 1 μM for 5 days
Method: Aβ (1-42) was incubated at 37° C. for four days for aggregation beforehand. […] After the 3-day treatment, a control antibody (normal rabbit IgG, 1:5000) was added to the cells, and the cells were incubated for 10 minutes and further treated with diosgenin (0.1 μM) for 5 days.
Seven to nine images were captured.

**Q.** For `C[C@@H]1CC[C@@]2(OC1)O[C@H]1C[C@H]3[C@@H]4CC=C5C[C@@H](O)CC[C@]5(C)[C@H]4CC[C@]3(C)[C@H]1[C@@H]2C` [diosgenin], which “preferential index, mice treated with ACSF and diosgenin” value ([1]; ACSF intraventricular, test 48 hours after training) is on record?
**A.** Its value is “significantly improved”.

**Q.** And the “memory improvement attributable to diosgenin in mice given 1,25D3-MARRS neutralizing antibody” value ([1]; Ab099 clone intraventricular continuous)?
**A.** The value was “completely offset”.

**Q.** What about the object recognition memory ([2]; normal C57BL/6 mice, diosgenin 100 μmol/kg/day i.p. 14 days) of the same compound?
**A.** The object recognition memory was “significantly improved”.

**Q.** And the “behavior index of exploratory behavior for the novel object” value ([2]; normal ddY mice, diosgenin 10 μmol/kg/day i.p. 5 or 6 days, 48 hours training-test interval)?
**A.** Its value is “higher than 50%”.

**Q.** And the “spontaneous motor activity (distance traveled in an open field during 10 minutes)” value [3]?
**A.** Its value is “no significant difference”.

**Q.** What about the “hindlimb motor function (BMS and TMS)” value [4] of the same compound?
**A.** The value was “improved hindlimb motor function”.

**Q.** What about the “frequency of exploratory behavior for the object moved to a new location” value [5] of the same compound?
**A.** The value was greater than 50%.

**Q.** What about the “diosgenin-induced axonal growth in cells where 1,25D3-MARRS was inhibited by the neutralizing antibody” value [6] of the same compound?
**A.** The value was “significantly suppressed”.
